{"source": "paper PMC6988309", "about": "“Preclinical efficacy for a novel tyrosine kinase inhibitor, ArQule 531 against acute myeloid leukemia” (Journal of Hematology & Oncology, 2020)", "key": {"FLT3-WT": {"biological_target": "T1, FLT3-WT (Homo sapiens, UniProt P36888)", "T1 construct": "measured using recombinant protein constructs of kinase domains (Reaction Biology); purchased Reaction Biology", "T1 sequence (P36888 610-943 limits assumed)": "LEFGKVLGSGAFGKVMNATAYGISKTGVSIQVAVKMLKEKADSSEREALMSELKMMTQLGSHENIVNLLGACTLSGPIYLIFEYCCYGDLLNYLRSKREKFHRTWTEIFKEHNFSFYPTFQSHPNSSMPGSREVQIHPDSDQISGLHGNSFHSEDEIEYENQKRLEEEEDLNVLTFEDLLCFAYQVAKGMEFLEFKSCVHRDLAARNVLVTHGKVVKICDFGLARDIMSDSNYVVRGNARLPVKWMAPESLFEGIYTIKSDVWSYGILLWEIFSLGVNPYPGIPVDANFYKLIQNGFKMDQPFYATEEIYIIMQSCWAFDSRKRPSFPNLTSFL", "experiment": "Biochemical assay of recombinant kinases, FLT3-WT", "details": "recombinant kinase domain, 10 μmol/L ATP", "method": "Biochemical inhibition of FLT3-WT and FLT3-ITD fusion was measured using recombinant protein constructs of kinase domains (Reaction Biology)."}, "OCI-AML3": {"system": "OCI-AML3", "experiment": "MTS proliferation assay 72 h, OCI-AML3", "assay_type": "cell-based", "details": "Homo sapiens, OCI-AML-3, read-out: Estimated absolute µM IC50 (95% CI), 4-parameter logistic model", "experimental": "A total of 5000–30,000 cells from the lines above were treated in a 96-well plate for 72 h. CellTiter 96 Aqueous MTS reagent (Promega, Madison, WI) was added to cells followed by a 3-h incubation at 37 °C, 5% CO2. The absorbance was measured at 490 nm using DTX 880 plate reader and the half maximal inhibitory concentration (IC50) was calculated using GraphPad Prism 7 (GraphPad Software, La Jolla, CA) and SAS/STAT software (SAS v9.4 for Windows, SAS Institute, Inc., Cary, NC)."}, "U937": {"system": "U937", "experiment": "MTS proliferation assay 72 h, U937", "assay_type": "cell-based, human", "experimental": "(§1) A total of 5000–30,000 cells from the lines above were treated in a 96-well plate for 72 h. CellTiter 96 Aqueous MTS reagent (Promega, Madison, WI) was added to cells followed by a 3-h incubation at 37 °C, 5% CO2. The absorbance was measured at 490 nm using DTX 880 plate reader and the half maximal inhibitory concentration (IC50) was calculated using GraphPad Prism 7 (GraphPad Software, La Jolla, CA) and SAS/STAT software (SAS v9.4 for Windows, SAS Institute, Inc., Cary, NC). For the MOLM-13 resistant and the Ba/F3-FLT3-ITD/TKD cell lines, cells were treated for 72 h and cell viability was evaluated using MTT assay (Roche Diagnostics. Mannheim. Germany) according to the manufacturer’s instructions."}, "MOLM13": {"system": "MOLM13", "experiment": "MTT proliferation assay 72 h, parental MOLM13", "assay_type": "cell-based, human", "experimental": "as §1"}, "Ba/F3 GFP+IL3": {"system": "Ba/F3 GFP+IL3", "experiment": "MTT proliferation assay 72 h, Ba/F3 GFP+IL3", "assay_type": "cell-based, murine", "experimental": "as §1"}, "[1]": {"system": "MOLM-13 disseminated AML xenograft", "experiment": "MOLM-13 disseminated xenograft, ARQ + Ven combination study (NCG mice)", "assay_type": "in vivo", "details": "50 mg/kg ARQ 531 and/or 75 mg/kg venetoclax Q.D.P.O from 4 days post-engraftment until ERC; vehicle 25 days", "method": "All experiments were conducted after approval of The Ohio State University Institutional Animal Care and Use Committee. Mice were randomized and enrolled for daily oral gavage (Q.D.P.O) treatment of vehicle or 50 mg/kg ARQ 531. Mice were treated until reaching early removal criteria (ERC) defined as 20% weight loss, lethargy, hind limb paralysis, moribund, anorexia, dehydration, hunched posture, severe diarrhea, breathing difficulties, or any abnormal neurological symptoms. […]\nFig. 7 BCL2 inhibition improves ARQ 531 in vivo activity. a Kaplan–Meier survival curve in the MOLM-13 xenograft after mice were treated with vehicle (N = 9) or 50 mg/kg ARQ 531 Q.D.P.O (N = 9) or 75 mg/kg venetoclax Q.D.P.O (N = 10) or 50 mg/kg ARQ 531 and 75 mg/kg venetoclax combination Q.D.P.O (N = 10) at 4 days post engraftment until ERC. b Noninvasive serial whole body bioluminescence imaging of ventral view to monitor leukemia progression and regression post treatment. Mice were injected with 150 mg/kg Firefly D-Luciferin for evaluation of tumor burden as determined by whole body bioluminescence imaging using IVIS imager"}, "[2]": {"system": "phosphorylated SYK (tyrosine 525/526)", "experiment": "Immunoblot of phospho-SYK Tyr525/526", "assay_type": "cell-based, human", "details": "MOLM-13, MV4-11, and OCI-AML3, 10-min treatment", "method": "Cell lines were serum starved overnight followed by a 10-min treatment. Cells were washed in ice-cold PBS then lysed in 1X Cell Lysis Buffer (CST) supplemented with proteinase and phosphatase inhibitors cocktail (Roche). Pierce BCA Protein Assay was used to quantify the protein lysates (Thermo Fisher Scientific, Waltham, MA). For Immunoblotting, 15–25 μg of protein lysate was prepared in 2X or 4X Laemmeli’s sample buffer (Bio-Rad Laboratories, Hercules, CA) and heated for 5 min at 100 °C. Samples were separated on 8% sodium dodecyl sulfate polyacrylamide gel and transferred onto nitrocellulose membrane (Bio-Rad Laboratories, Hercules, CA). The membranes were blocked for 1 h in Blocker BLOTTO Blocking Buffer (Thermo Fisher Scientific, Waltham, MA) or 5% non-fat milk followed by overnight incubation at 4 °C with primary antibody followed by HRP-conjugated secondary antibodies and visualized with chemiluminescent Pierce ECL Substrate (Thermo Fisher Scientific, Waltham, MA) on X-ray films.\nFig. 3 ARQ 531 modulates AML pro-survival kinases. Immunoblot analysis for MOLM-13, MV4-11, and OCI-AML3 AML cell lines (representative of 2-3 independent blots). […] Twenty to 25 μg of total protein lysate was loaded per lane. GAPDH, HSP90, or β-Actin were used as loading controls. a, b Modulation of phosphorylated SFK and downstream targets in FLT3-ITD cell lines MOLM-13 and MV-11, respectively. c, d Modulation of phosphorylated SYK and BTK in all three cell lines"}, "[3]": {"system": "Ba/F3 FLT3-ITD pMIT-Empty", "experimental": "(§2) CellTiter 96 Aqueous MTS reagent (Promega, Madison, WI) was added to cells followed by a 3-h incubation at 37 °C, 5% CO2. The absorbance was measured at 490 nm using DTX 880 plate reader and the half maximal inhibitory concentration (IC50) was calculated using GraphPad Prism 7 (GraphPad Software, La Jolla, CA) and SAS/STAT software (SAS v9.4 for Windows, SAS Institute, Inc., Cary, NC)."}, "[4]": {"system": "Ba/F3 FLT3-ITD pMIT SYK-TEL", "experimental": "as §2"}, "[5]": {"details": "cited from earlier work"}, "MOLM-13": {"system": "MOLM-13", "experiment": "MTS proliferation assay 72 h, MOLM-13", "experimental": "as §1"}}, "note": "Where “and” joins values, the source holds several entries; their conditions need not be identical. Equal values may be shown once. Read-outs that look alike come from different tables or passages of the source.", "data": [{"smiles": "O=C(c1ccc(Oc2ccccc2)cc1Cl)c1c[nH]c2ncnc(N[C@@H]3CC[C@@H](CO)OC3)c12", "note": "[ARQ 531]", "values": [{"measurement": "IC50", "setting": "FLT3-WT", "value": 82, "unit": "nM"}, {"measurement": "IC50", "setting": "OCI-AML3", "value": 1.51, "unit": "µM"}, {"measurement": "resistant to concentrations up to", "setting": "U937", "value": "> 10", "unit": "µM"}, {"measurement": "Estimated absolute µM IC50 (95% CI)", "setting": "U937; 4-parameter logistic model", "value": "Unable to calculate IC50"}, {"measurement": "IC50", "setting": "MOLM13; Homo sapiens, MOLM-13, 72 h, read-out: Estimated absolute µM IC50 and 95% CI, MTT, 72 h", "value": 1.33, "unit": "µM"}, {"measurement": "IC50", "setting": "MOLM13; read-out: Estimated absolute µM IC50 and 95% CI, MTT, 72 h", "value": 1.3, "unit": "µM"}, {"measurement": "Estimated absolute µM IC50 and 95% CI", "setting": "Ba/F3 GFP+IL3", "value": "Unable to calculate IC50"}, {"measurement": "survival", "setting": "[1]", "value": 27, "unit": "days"}, {"measurement": "effect on phosphorylated SYK (tyrosine 525/526)", "setting": "[2]", "value": "inhibited the phosphorylated levels of SYK"}, {"measurement": "IC50", "setting": "Ba/F3 FLT3-ITD Parental", "value": "2710 nM and 2530 nM"}, {"measurement": "IC50", "setting": "[3]", "value": "4240 nM and 2700 nM and 3480 nM"}, {"measurement": "IC50", "setting": "[4]", "value": "11000 nM and 5940 nM and 6610 nM"}, {"measurement": "Cmax", "setting": "[5]; 65 mg daily dose", "value": "~3000", "unit": "nM"}, {"measurement": "concentration steady-state levels", "setting": "[5]; ongoing phase 1 dose escalation trial in relapsed or refractory CLL", "value": "exceeding 1 μM"}, {"measurement": "IC50", "setting": "MOLM-13; Homo sapiens, MOLM-13, 72 h, read-out: Estimated absolute µM IC50 (95% CI)", "value": 0.69, "unit": "µM"}, {"measurement": "in vitro anti-proliferative activity", "setting": "MOLM-13; MOLM-13, 1 µM, 72 hours MTS (ibrutinib 1 hour washout)", "value": "demonstrated in vitro anti-proliferative activity"}]}]}
